Results on 83 compounds are retold here after PubChem BioAssay AID588780 (Sanford-Burnham Center for Chemical Genomics, 2011).

Calls of active or inactive are those of the source.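 How the source made its calls: active means compounds whose fitted half-maximal concentration in the cell-protection dose series is at or below a set limit; inactive means the rest.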 A value given as a limit tells only on which side of the number the result lay.

The experiment relates to H9c2 cardiomyocytes, 2-deoxyglucose stress, ATP luminescence, 2 h. Description: protection of cardiomyocytes from 2-deoxyglucose injury, dose response, cell-based, 2-deoxyglucose stress, uHTS hits (AID 588780).
For the compound `COc1cc(C)cc2oc(=O)c(CC(=O)N3CCN(C(=O)C4COc5ccccc5O4)CC3)c(C)c12` (stereo not drawn), the IC50 was 34.9 µM (inactive).

With `COC(=O)c1cc(C(=O)OCC(=O)N2c3ccccc3NC(=O)C2(C)C)cc([N+](=O)[O-])c1`, the IC50 is 39 µM (inactive).

With `CCOc1ccc(C(C(=O)NCC2CCCO2)N(C(=O)c2snc(C(N)=O)c2N)c2ccccc2F)cc1` (stereo not drawn), the IC50 was 20.6 µM.

For `CCCCN(Cc1nc2ccccc2c(=O)[nH]1)C(=O)CN1C(=O)NC2(CCCCC2)C1=O`, the IC50 was > 79 µM (inactive).

As for `NC(=O)c1ccsc1NC(=O)COC(=O)Cc1n[nH]c(=O)c2ccccc12`, the IC50 is > 79 µM (inactive).

In the case of `COc1cc(OC)cc(-c2cc3nc(C)c(CCC(=O)Nc4nc(C)cs4)c(C)n3n2)c1`, the IC50 is > 79 µM (inactive).

`N#C/C(=C\c1cn(-c2ccccc2)nc1-c1cccnc1)c1nnc2n1CCCCC2`: the IC50 was 21.7 µM.

As for `Cc1cccc(-n2c(SCc3cc(=O)n4ccsc4n3)nc3ccccc3c2=O)c1`, the IC50 is 14 µM.

Take `Cc1ccc(-c2n[nH]c(=O)c3ccccc23)cc1S(=O)(=O)Nc1ccccc1`: the IC50 was > 79 µM (inactive).

`Cc1cc(OCC(=O)N2CCOCC2)cc2oc(=O)c3ccccc3c12`: the IC50 was 14.7 µM.

With `COc1cc(NC(=O)c2ccc(-c3cn[nH]c3)c3ccoc23)cc(OC)c1OC`, the IC50 was 10.4 µM.

For the compound `C/C(=N\NC(=O)CCCNc1ccc(C)cc1)c1ccccn1`, the IC50 is > 79 µM (inactive).

As for `CC(=O)Nc1ccc(S(=O)(=O)N(Cc2ccco2)Cc2cc3ccccc3[nH]c2=O)cc1`, the IC50 is > 79 µM (inactive).

`O=C(NCCc1c[nH]c2ccccc12)C(=O)NCC(c1ccco1)N1CCN(c2ccccc2F)CC1` (stereo not drawn): the IC50 was > 79 µM (inactive).

As to `CCn1c(O)c(/C=N/N=C2CCCCC2)c2cc(C3=NNC(=O)CC3)ccc21`, the IC50 was 12.5 µM.

As for `COc1ccc2c(c1OC)c(=O)n1c3ccc(OC(C)C(=O)NCCN4CCOCC4)cc3c3ccnc2c31` (stereo not drawn), the IC50 is 29.3 µM.

For the compound `Nc1c(C(=O)N/N=C/c2cccnc2)oc2nc(-c3ccco3)cc(-c3ccco3)c12`, the IC50 was > 79 µM (inactive).

For `O=C(COc1ccccc1F)Nc1nc(-c2ccccn2)cs1`, the IC50 was > 79 µM (inactive).

As to `COc1cc(/C=C/C(=O)Nc2ccc3nc4n(c(=O)c3c2)CCCC4)cc(OC)c1OC`, the IC50 is 24.2 µM.

For the compound `COc1ccc(C(=O)NNC(=O)c2ccc3ccccc3n2)cc1`, the IC50 is > 79 µM (inactive).

On to `CCOC(=O)C1CCN(c2cc3c(cc2NC(=O)c2ccc(OC)c(OC)c2)n(C)c(=O)n3C)CC1`, for which the IC50 was > 79 µM (inactive).

As to `O=C(/C=C/NNC(=O)c1ccccc1)c1ccc(Br)cc1`, the IC50 is > 79 µM (inactive).

With `COc1cc(-c2cnc3c(NC=O)cc(-c4ccsc4)cn23)cc(OC)c1OC`, the IC50 was > 79 µM (inactive).

With `Brc1ccc(-c2nn3c(-c4ccco4)nnc3s2)o1`, the IC50 was 20 µM.

With `CN(C)S(=O)(=O)c1cccc(NC(=O)COC(=O)c2ccc([N+](=O)[O-])o2)c1`, the IC50 was > 79 µM (inactive).

Take `COc1cc(-c2cc(C(=O)Nc3ccccc3N3CCOCC3)c3ccccc3n2)cc(OC)c1OC`: the IC50 is > 79 µM (inactive).

Regarding `CN(CC1COc2ccccc2O1)c1nc(-c2cccnc2)nc2ccccc12` (stereo not drawn), the IC50 was > 79 µM (inactive).

On to `COc1ccc(CC(=O)NCC(=O)N/N=C/c2cc(Br)ccc2OC)cc1`, for which the IC50 is > 79 µM (inactive).

For the compound `CCCCn1c(NC(=O)c2ccccc2)nc2ccccc21`, the IC50 is > 79 µM (inactive).

In the case of `CC12C=CC(=O)CC1CCC1C2CCC2(C)C(O)C(O)CC12` (stereo not drawn), the IC50 is 12.3 µM.

For `COc1ccc(-c2cc3nc(-c4ccccc4)cc(N4CCN(C(=O)c5ccoc5)CC4)n3n2)cc1`, the IC50 is 6.39 µM.

In the case of `O=C(CSc1ccc(-c2ccccn2)nn1)N1CCCc2ccccc21`, the IC50 was > 79 µM (inactive).

`COc1cccc(C(=O)Nc2cc(C)c3c(=O)oc4ccccc4c3n2)c1`: the IC50 was > 79 µM (inactive).

Consider `COc1ccc(-c2cc(-c3ccc(O)cc3)nc(N)c2C#N)cc1OC`, for which the IC50 is > 79 µM (inactive).

As for `CCN(CC(=O)Nc1c(F)cccc1F)C(=O)CCc1nc2ccccc2c(=O)[nH]1`, the IC50 is > 79 µM (inactive).

As to `CCOC(=O)c1cc2c(=O)n3ccccc3nc2n(Cc2ccco2)c1=NC(=O)c1cccnc1`, the IC50 was 22.3 µM.

For `O=C(COC(=O)Cn1[nH]c(=O)c2ccccc2c1=O)NNC(=O)c1ccc(Br)cc1`, the IC50 was > 79 µM (inactive).

For `Cc1sc2nc(NCCO)[nH]c(=O)c2c1C`, the IC50 is > 79 µM (inactive).

For `COC(=O)c1[nH]c2ccccc2c1NC(=O)CNC1CCCCC1`, the IC50 was > 79 µM (inactive).

As for `COc1ccccc1NC(=O)CSc1ccc2nnc(-c3ccc(C)cc3)n2n1`, the IC50 was > 79 µM (inactive).

Turning to `Nc1c(C(=O)N/N=C/c2cccnc2)oc2nc(-c3ccccc3)cc(-c3ccco3)c12`, the IC50 is > 79 µM (inactive).

Regarding `O=C(COC(=O)c1ccccc1C(=O)OCC(=O)NCCc1c[nH]c2ccccc12)NCCc1c[nH]c2ccccc12`, the IC50 is > 79 µM (inactive).

For the compound `CC(C)(C)OC(=O)N1CCC[C@H]1c1nnc(SCC(=O)Nc2ccc(Br)cc2)o1`, the IC50 was 17.7 µM.

For `Cc1ccc(C(=O)Oc2ccc(Cl)c3cccnc23)cc1[N+](=O)[O-]`, the IC50 was > 79 µM (inactive).

Take `CCOC(=O)c1ccc(NC(=O)c2nc[nH]c2C(=O)NCCCCCNC(=O)OC(C)(C)C)cc1`: the IC50 was 5.78 µM.

On to `CCNC(=O)/C(C#N)=C/c1c(N(Cc2ccccc2)Cc2ccccc2)nc2ccccn2c1=O`, for which the IC50 was 24.6 µM.

As to `CCN(CC)c1ccc(C(=O)NNC(=O)CCc2nc3ccccc3c(=O)[nH]2)cc1`, the IC50 is > 79 µM (inactive).

Regarding `COc1ccccc1C(=O)NCC(=O)N/N=C/c1cc(Br)ccc1OC(=O)/C=C\c1ccco1`, the IC50 is > 79 µM (inactive).

Turning to `Cc1cc(C)c(C)c(S(=O)(=O)N2CCC(C(=O)NNC(=O)c3ccccc3O)CC2)c1C`, the IC50 is > 79 µM (inactive).

Consider `O=C(c1ccoc1)N1CCN(c2cc(-c3ccncc3)nc3cc(-c4cccc(Cl)c4)nn23)CC1`, for which the IC50 is > 79 µM (inactive).

As to `Cc1ccccc1OCC(=O)NNC(=O)Cn1[nH]c(=O)c2ccccc2c1=O`, the IC50 was > 79 µM (inactive).

Turning to `COc1ccc(CCNc2nc(-c3cccnc3)nc3ccccc23)cc1OC`, the IC50 was > 79 µM (inactive).

For the compound `CC(=O)c1c(C)n(-c2cccc(Cl)c2)c2ccc(O)cc12`, the IC50 was 16.8 µM.

Turning to `O=C(N/N=C/c1ccc(-c2cccc([N+](=O)[O-])c2)o1)c1ccc([N+](=O)[O-])cc1`, the IC50 is > 79 µM (inactive).

Turning to `CCOC(=O)c1cc2c(=O)n3cccc(C)c3nc2n(CCCOC)c1=NC(=O)c1cccnc1`, the IC50 is > 79 µM (inactive).

As for `COC(=O)c1ccc(N)c(N=CC2=C(O)CC(C)(C)CC2=O)c1`, the IC50 is 10.8 µM.

As to `COc1ccc(Cl)cc1NC(=O)CN(C)C(=O)Cc1n[nH]c(=O)c2ccccc12`, the IC50 was > 79 µM (inactive).

Regarding `CCC(=O)Oc1ccc2c(C)cc(=O)oc2c1C`, the IC50 is > 79 µM (inactive).

Take `O=C(CCc1nc2ccccc2c(=O)[nH]1)N1CCN(S(=O)(=O)c2ccccc2Br)CC1`: the IC50 was > 79 µM (inactive).

`Cc1sc2nc(SCC(=O)NCc3ccco3)[nH]c(=O)c2c1C`: the IC50 was > 79 µM (inactive).

In the case of `CCOc1cc(/C=N/NC(N)=O)cc(Br)c1OCC(=O)Nc1cccc2ccccc12`, the IC50 was > 79 µM (inactive).

As to `Cn1c(=O)c2c(nc(NCc3cccnc3)n2Cc2cccc(C(F)(F)F)c2)n(C)c1=O`, the IC50 is > 79 µM (inactive).

On to `COc1cc(-c2cc(NC(C)=O)c3ncc(-c4cc(OC)c(OC)c(OC)c4)n3c2)cc(OC)c1OC`, for which the IC50 is 5.28 µM.

As to `Cc1nc(SCC(=O)N2CCN(c3ccccc3)CC2)c2oc3ccccc3c2n1`, the IC50 was 13.8 µM.

Turning to `Cc1ccc(N=Cc2cc(Cl)cc(Cl)c2O)nc1`, the IC50 was > 79 µM (inactive).

Consider `Cc1cc(C)c(C)c(S(=O)(=O)N2CCN(C(=O)CCc3nc4ccccc4c(=O)[nH]3)CC2)c1C`, for which the IC50 was > 79 µM (inactive).

As for `O=C(NNC(=O)c1cc2cc(Br)ccc2oc1=O)c1ccc(O)cc1O`, the IC50 is 31.7 µM (inactive).

In the case of `COc1cc(NC(=O)c2cc3nc(-c4ccccc4)cc(-c4ccccc4)n3n2)cc(OC)c1OC`, the IC50 is > 79 µM (inactive).

On to `O=C(CCc1nc2ccccc2c(=O)[nH]1)NCC(=O)Nc1ccc(F)c(F)c1`, for which the IC50 was > 79 µM (inactive).

As for `CCN1CCN(c2nc3c(c(=O)[nH]2)CCCC3)CC1`, the IC50 was > 79 µM (inactive).

With `CNC(=O)COC(=O)/C=C/c1cn(-c2ccccc2)nc1-c1ccc(C)o1`, the IC50 is 11.6 µM.

As for `O=c1[nH]cnc2sc3c(c12)CCC3`, the IC50 was > 79 µM (inactive).

Turning to `COc1cc(OC)cc(C(=O)NNC(=O)CCc2nc3ccccc3c(=O)[nH]2)c1`, the IC50 is > 79 µM (inactive).

For `COc1cccc(/C=N/NC(=O)c2ccncc2)c1OC(=O)c1ccc(Br)cc1`, the IC50 is 24.7 µM.

Take `Cc1cc(C(=O)N/N=C/c2c(CO)cnc(C)c2O)c2ccccc2n1`: the IC50 was > 79 µM (inactive).

With `Cc1ccc(C)c(C(=O)Nc2cc(C)nn2-c2nc(C)cc(C)n2)c1`, the IC50 is > 79 µM (inactive).

`Cc1cccc(NC(=O)c2cc(-c3ccco3)nc3ccccc23)n1`: the IC50 is > 79 µM (inactive).

As for `CCOc1ncccc1C(=O)Nc1cccc(-c2nc3cccnc3s2)c1`, the IC50 is > 79 µM (inactive).

With `CCOc1cc(/C=N\NC(=O)c2ccc(NC(=O)C(C)(C)C)cc2)ccc1OC(=O)c1cccc(C)c1`, the IC50 is 15.3 µM.

As for `CC(OC(=O)Cc1n[nH]c(=O)c2ccccc12)C(=O)Nc1ccc(F)cc1` (stereo not drawn), the IC50 is > 79 µM (inactive).

Consider `Cc1ccc(NC(=O)CSC(C)C(=O)OCc2cc(=O)oc3cc(O)ccc23)cc1` (stereo not drawn), for which the IC50 is > 79 µM (inactive).

Turning to `CC(Oc1ccc(Br)cc1)C(=O)Nc1nc(-c2ccccn2)cs1` (stereo not drawn), the IC50 was > 79 µM (inactive).

Regarding `O=C(c1ccco1)N1CCN(C(=O)c2cc(-c3ccncc3)nc3ccc(Br)cc23)CC1`, the IC50 was 13.8 µM.
